Test results as given in patent EP3833345B1, “SMALL MOLECULE-INHIBITORS OF 6-PHOSPHOFRUCTO-1-KINASE FOR REDUCING LACTATE GENERATION BY CANCER CELLS” (Kemijski Institut, priority 2018, dated 2020).

Key:
MCF-10A cell line = assay: lactate excretion by non-tumorigenic MCF-10A cells; type: cell-based
Experimental: The effect of Inhibitor No. 3 on lactate excretion was tested also on two non-tumorigenic cell lines. First, fast proliferating human embryonic kidney (HEK 293) cells were assessed for lactate formation in the presence of Inhibitor No. 3. RPMI 1640 GlutaMAX medium (Thermo Fisher) supplemented with 10% FBS was used as a growth medium. […] About 95 mg/L of lactate were detected after 72 hours of incubation by untreated cells (control) and by the cells growing in the presence of Inhibitor No. 3 (Figure 9a). Similar results were recorded also by non-tumorigenic MCF-10A cell line isolated form the epithelial cells of the mammary gland. The cells were cultivated in MEBM medium supplemented by additives that were obtained as a MEGM Kit from Lonza/Clonetics Corporation. Characteristically these cells grew slower than HEK 293 cells with correspondingly slower lactate excretion rate. After 96 hours of incubation, only about 27 mg/L of lactate was detected in the medium. Again, no influence of different concentrations of Inhibitor No. 3 on lactate generation could be observed (Figure 9b).

[1] = target: T1, native human (85 kDa) 6-phosphofructo-1-kinase (PFK-M), nPFK-M (Homo sapiens, UniProt P08237); assay: in vitro inhibition of purified recombinant native PFK-M enzyme; conditions: inhibitor range 10 - 50 µM, Figure 3
T1 sequence (P08237 1-780): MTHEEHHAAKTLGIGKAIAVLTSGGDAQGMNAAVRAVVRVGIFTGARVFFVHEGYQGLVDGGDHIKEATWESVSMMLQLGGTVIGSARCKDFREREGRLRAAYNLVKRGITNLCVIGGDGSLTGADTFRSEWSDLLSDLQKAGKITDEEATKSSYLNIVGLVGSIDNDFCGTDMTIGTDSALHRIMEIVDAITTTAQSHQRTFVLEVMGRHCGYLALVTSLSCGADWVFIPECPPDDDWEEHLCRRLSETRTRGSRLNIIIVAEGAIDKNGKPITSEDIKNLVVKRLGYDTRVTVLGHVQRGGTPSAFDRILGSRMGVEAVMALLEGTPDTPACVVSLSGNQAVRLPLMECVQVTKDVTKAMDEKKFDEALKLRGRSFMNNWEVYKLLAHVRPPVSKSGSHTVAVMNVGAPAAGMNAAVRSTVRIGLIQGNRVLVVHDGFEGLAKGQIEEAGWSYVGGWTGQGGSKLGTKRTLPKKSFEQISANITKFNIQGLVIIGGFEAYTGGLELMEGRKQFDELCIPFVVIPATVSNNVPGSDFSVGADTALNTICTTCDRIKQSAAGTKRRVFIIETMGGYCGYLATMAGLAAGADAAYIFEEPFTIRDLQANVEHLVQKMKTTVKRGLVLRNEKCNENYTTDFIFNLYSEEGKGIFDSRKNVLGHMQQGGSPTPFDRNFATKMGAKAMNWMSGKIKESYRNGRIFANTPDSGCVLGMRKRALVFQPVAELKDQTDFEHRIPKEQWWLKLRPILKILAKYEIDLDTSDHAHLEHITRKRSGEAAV

Jurkat cells [2] = assay: growth and survival of Jurkat cells (Countess, Trypan blue); type: cell-based
Experimental: The effects of both inhibitors were tested also on growth of the non-adherent Jurkat cells. Total amount of cells and the number of dead cells was determined by the Countess (Invitrogen, Carlsbad, CA). […].

MDA-MB-231 cells = assay: cytotoxicity in MDA-MB-231 cells (LDH kit); type: cell-based
Experimental: (§1) Lactate generation, growth yield and survival under normal and inhibitory conditions of three different tumorigenic cells lines were determined in more detailed measurements. […] Cytotoxicity was measured by the Lactate dehydrogenase (LDH) kit (Roche).
Inhibitors No. 23, 29, 30 and 31 were tested for preventing lactate generation by the MDA-MB-231 cells.

COLO 829 cells [3] = assay: cytotoxicity in COLO 829 cells (LDH kit); type: cell-based
Experimental: as §1

Jurkat cells [4] = assay: long-term fed-batch cultivation of Jurkat cells (18 days); conditions: 100 µM
COLO 829 cells [5] = assay: lactate excretion by COLO 829 cells; type: cell-based; conditions: inhibitor added 8 hours after inoculation, then at 24-hour intervals; low concentrations (from 10 µM)
[6] = sequential addition at 24-hour intervals, 92 hours, average over medium without and with inhibitor
[7] = single addition, average over control and different concentrations of inhibitor

SMILES: O=C(CSc1nnc(-c2ccc3c(c2)OCO3)o1)Nc1ccon1 [Inhibitor No. 3, 2-[(5-benzo[1,3]dioxol-5-yl-1,3,4-oxadiazol-2-yl)sulfanyl]-N-isoxazol-3-yl-acetamide]
- lactate detected in the medium, MCF-10A (MCF-10A cell line; after 96 hours of incubation, no influence of inhibitor concentration): about 27 mg/L
- influence on lactate generation, MCF-10A (MCF-10A cell line; different concentrations, 96 hours): no influence
- inhibition of the activity of native nPFK-M enzyme [1]: remarkably reduced also the activity of native nPFK-M enzyme
- dead cells (Jurkat cells [2]; Jurkat cells stained with Tripan blue): 3,21±0,27%
- effect on growth of Jurkat cells (total cell numbers) (Jurkat cells [2]; different concentrations, 72 hours): remarkable reduction of growth rate at concentrations higher than 25 µM
- average percentages of dead cells, MDA-MB-231, sequential re-insertion (MDA-MB-231 cells; [6]): 2,05±0,18%
- average percent of dead MDA-MB-231 cells (MDA-MB-231 cells; [7]): 7,2±0,47%
- average percentages of dead cells, COLO 829, sequential re-insertion (COLO 829 cells [3]; [6]): 1,95±0,15%
- average percent of dead COLO 829 cells (COLO 829 cells [3]; [7]): 5,01±1,08%
- viability of the Jurkat cells, long-term (Jurkat cells [4]; fed-batch, 18 days): slight decrease of viability
- duration of slow reduction of lactate generation rate after the addition of inhibitor (Jurkat cells [4]; long term experiment): 24 to 48 h
- lactate formation in COLO 829 cells, sequential re-insertion (COLO 829 cells [5]): strong reduction of lactate formation
